The values below come from PubChem BioAssay (NCI).

Some test systems named below: SF-268 CNS; HCT-15 colon; SNB-75 CNS; HT29 colon; MDA-N; NCI-H23 lung; SW-620 colon; SK-MEL-2 melanoma; LOX IMVI melanoma; MALME-3M melanoma.
What all share (experiment): inhibition of tumour cell growth, NCI panel, 48 h

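Step 1: Grow cells in 96-well plates. Step 2: Expose to compound for 48 hours at 5 concentrations. Step 3: Interpolate endpoints linearly; if unreached, use highest concentration. At the TGI there is no net growth.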

For `CCN(CCCl)c1cc(CN(C)C)cc(NC(=O)c2ccc(C(=O)Nc3ccccc3)cc2)c1`, the TGI with SF-268 CNS amounted to 13.6 µM; in the experiment with HCT-15 colon, 4.53 µM; in the experiment with SNB-75 CNS it was 4.13 µM; in the experiment on HT29 colon it was 0.414 µM; in the experiment on MDA-N, 0.925 µM; in the experiment on NCI-H23 lung, 1.27 µM. Besides, the TGI in the experiment with SW-620 colon came to 0.339 µM; in the experiment with SK-MEL-2 melanoma it was 0.519 µM; in the experiment on LOX IMVI melanoma it was 0.634 µM; with MALME-3M melanoma, 0.425 µM.

Turning to `COc1ccc2c(c1)c(=O)c1c(NCCCN(C)C)ccc3ncn2c31`, the TGI in the experiment on SF-268 CNS is 16.1 µM; in the experiment with HCT-15 colon, 14.7 µM; in the experiment on SNB-75 CNS it was 19.8 µM; in the experiment with HT29 colon it was 8.21 µM; in the experiment with MDA-N, 18.8 µM; in the experiment on NCI-H23 lung, 21 µM. Further, the TGI in the experiment on SW-620 colon is 15.3 µM; in the experiment with SK-MEL-2 melanoma it was 22.1 µM; in the experiment on LOX IMVI melanoma, 4.86 µM; with MALME-3M melanoma, 26 µM.

Regarding `C(#C[C@@]12CCC[C@@H]1N(Cc1ccccc1)CO2)c1ccc2c(c1)OCO2`, the TGI in the experiment on SF-268 CNS, in the experiment with HCT-15 colon, with SNB-75 CNS, in the experiment on HT29 colon, with MDA-N and in the experiment with NCI-H23 lung was above 100 µM each time. Further, the TGI with SW-620 colon, with SK-MEL-2 melanoma and in the experiment with MALME-3M melanoma was above 100 µM each time.

`COC(=O)C1(Cc2ccc(C)cc2)Cc2c(C)cccc2C1=O` (configuration not stated): the TGI with SF-268 CNS was above 100 µM; with HCT-15 colon, 75.9 µM; with SNB-75 CNS, above 100 µM; in the experiment on HT29 colon, 34.2 µM; with MDA-N, 14.4 µM; in the experiment with NCI-H23 lung, above 100 µM. The TGI was above 100 µM in the experiment on SW-620 colon, 28.7 µM with SK-MEL-2 melanoma, 38.6 µM in the experiment with LOX IMVI melanoma and 30.8 µM with MALME-3M melanoma.

Turning to `CC1OC(OC2C[C@](O)(C(=O)CBr)Cc3c(O)c4c(c(O)c32)C(=O)c2ccccc2C4=O)C(F)C(O)C1O` (some centres not stated), the TGI in the experiment on SF-268 CNS was 73.7 µM; in the experiment with HCT-15 colon it was 21.6 µM; in the experiment on SNB-75 CNS, 56.2 µM; in the experiment with HT29 colon, above 56.1 µM; with MDA-N, 44.7 µM; with NCI-H23 lung it was 36.2 µM. Besides, the TGI with SW-620 colon is above 45.8 µM; in the experiment on SK-MEL-2 melanoma, 79.5 µM; in the experiment with LOX IMVI melanoma, 35.8 µM; with MALME-3M melanoma it was 16.5 µM.

With `CC(C)(C)C(=O)CC(=O)C(F)(F)C(F)(F)C(F)(F)F.[Ag]`, the TGI with SF-268 CNS is 40.3 µM; in the experiment with HCT-15 colon it was 31.3 µM; in the experiment with SNB-75 CNS it was 34.6 µM; in the experiment on HT29 colon, 36 µM; with MDA-N, 29 µM; with NCI-H23 lung, 33.1 µM. Besides, the TGI with SW-620 colon is 47 µM; in the experiment on SK-MEL-2 melanoma, 33.6 µM; in the experiment with LOX IMVI melanoma, 14.5 µM; with MALME-3M melanoma, 45.4 µM.

With `CCOC(=O)c1csc(-c2nc(CCNC(=O)c3ccccc3)sc2Cl)n1`, the TGI in the experiment with SF-268 CNS, with HCT-15 colon, in the experiment with SNB-75 CNS, in the experiment on HT29 colon, in the experiment with MDA-N and in the experiment with NCI-H23 lung was above 100 µM throughout. The TGI in the experiment with SW-620 colon and in the experiment on MALME-3M melanoma was above 100 µM throughout.

On to `COc1ncc(C#CC(=O)c2ccccc2)c(OC)n1`, for which the TGI was 26.4 µM in the experiment with SF-268 CNS; 3.18 µM in the experiment with HCT-15 colon; 14 µM in the experiment on SNB-75 CNS; 5.07 µM in the experiment with HT29 colon; 3.73 µM with MDA-N; 10.9 µM in the experiment on NCI-H23 lung. The TGI in the experiment with SW-620 colon worked out at 4.84 µM; with SK-MEL-2 melanoma, 13.4 µM; in the experiment on LOX IMVI melanoma, 3 µM; in the experiment with MALME-3M melanoma it was 3.62 µM.

On to `CC1(C)/C(=N\Nc2ccc([N+](=O)[O-])cc2[N+](=O)[O-])C2CCC1C2` (configuration not stated), for which the TGI in the experiment with SF-268 CNS was above 100 µM; in the experiment with HCT-15 colon, above 100 µM; in the experiment on SNB-75 CNS, 65.8 µM; in the experiment with HT29 colon it was above 100 µM; in the experiment on MDA-N, above 100 µM; with NCI-H23 lung it was above 100 µM. The TGI in the experiment with SW-620 colon, in the experiment on SK-MEL-2 melanoma, in the experiment with LOX IMVI melanoma and with MALME-3M melanoma was above 100 µM throughout.

Turning to `CC(C)(C)OC(=O)N1CCC(NC(=O)NC2CCN(C(=O)OC(C)(C)C)CC2)CC1`, the TGI in the experiment with SF-268 CNS, in the experiment on HCT-15 colon, in the experiment with SNB-75 CNS, with HT29 colon, with MDA-N and with NCI-H23 lung was above 100 µM each time. Moreover, the TGI with SW-620 colon, in the experiment with SK-MEL-2 melanoma, in the experiment on LOX IMVI melanoma and in the experiment on MALME-3M melanoma was above 100 µM each time.

As for `Brc1ccc(C2CC3(c4ccccc4)ON=C(c4ccccc4)N3c3ccccc3S2)cc1` (configuration not stated), the TGI in the experiment with SF-268 CNS, with HCT-15 colon, in the experiment on SNB-75 CNS, in the experiment on HT29 colon, with MDA-N and with NCI-H23 lung was above 100 µM each time. The TGI in the experiment on SW-620 colon, with SK-MEL-2 melanoma, in the experiment on LOX IMVI melanoma and with MALME-3M melanoma was above 100 µM throughout.

Take `Nc1nc(Cl)c(C=O)c(NCC2(CO)CCC2)n1`: the TGI was 51.8 µM with SF-268 CNS; 25.3 µM with HCT-15 colon; 67.7 µM with SNB-75 CNS; above 100 µM in the experiment on HT29 colon; 77 µM with MDA-N; above 100 µM with NCI-H23 lung. The TGI is above 100 µM with SW-620 colon, 28.3 µM in the experiment with SK-MEL-2 melanoma, 26.9 µM in the experiment on LOX IMVI melanoma and above 100 µM in the experiment with MALME-3M melanoma.

For `Fc1cc2nc3n(c2cc1F)C(c1c(Cl)cccc1Cl)SC3` (configuration not stated), the TGI in the experiment with SF-268 CNS worked out at 34.4 µM; in the experiment on HCT-15 colon, 36.7 µM; with SNB-75 CNS it was 26.8 µM; with HT29 colon, 29.8 µM; in the experiment on MDA-N, 29.5 µM; in the experiment on NCI-H23 lung it was 35.7 µM. Besides, the TGI in the experiment with SW-620 colon was determined as 34 µM; in the experiment on SK-MEL-2 melanoma it was 33.6 µM; in the experiment on LOX IMVI melanoma it was 31.7 µM; with MALME-3M melanoma, 33.8 µM.
